One series addresses T1, human sirtuin-1 (Sirt1) (Homo sapiens, UniProt Q96EB6).
T1 construct: purchased BioMol, Hamburg, Germany
T1 sequence (Q96EB6 1-747): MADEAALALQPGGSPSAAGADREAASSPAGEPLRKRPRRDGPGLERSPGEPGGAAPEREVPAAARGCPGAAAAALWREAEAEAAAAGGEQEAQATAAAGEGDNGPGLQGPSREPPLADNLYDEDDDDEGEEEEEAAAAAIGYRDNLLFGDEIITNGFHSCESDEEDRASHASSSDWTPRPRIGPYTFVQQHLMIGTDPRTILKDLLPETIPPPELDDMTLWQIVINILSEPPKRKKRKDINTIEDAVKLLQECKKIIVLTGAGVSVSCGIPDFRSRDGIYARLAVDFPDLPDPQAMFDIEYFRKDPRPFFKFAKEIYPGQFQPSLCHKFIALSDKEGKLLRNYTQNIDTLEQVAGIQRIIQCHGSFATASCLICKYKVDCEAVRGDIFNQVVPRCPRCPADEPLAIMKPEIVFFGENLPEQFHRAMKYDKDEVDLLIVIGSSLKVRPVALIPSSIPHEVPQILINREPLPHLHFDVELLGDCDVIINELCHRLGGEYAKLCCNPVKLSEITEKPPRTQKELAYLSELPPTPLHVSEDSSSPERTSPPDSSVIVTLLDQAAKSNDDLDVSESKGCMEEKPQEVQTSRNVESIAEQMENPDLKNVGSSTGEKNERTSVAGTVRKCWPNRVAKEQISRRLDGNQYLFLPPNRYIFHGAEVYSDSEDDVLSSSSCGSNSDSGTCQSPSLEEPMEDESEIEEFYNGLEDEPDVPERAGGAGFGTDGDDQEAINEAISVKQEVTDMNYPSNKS
Briefly: SIRT1 Fluorimetric Drug Discovery Kit, Sirt1 activation. Type of series: biochemical. Conditions: for Fold increase in sirtl activity versus control: 10 μM, control = trans-resveratrol. Here is the method: Compounds were tested for Sirt1 activation using the SIRT1 Fluorimetric Drug Discovery Kit (BioMol, Hamburg, Germany), Testing was carried out in dubplicate following the manufacturer's instructions. Assay medium: 50 mM Tris-HCl pH 8.0, 137 mM NaCl, 2.7 mM KCl, 1 mM MgCl2, 1 mg/ml bovine serum albumin (BSA). Stock solutions of the test compounds (10 mM in DMSO) were used, yielding a final concentration of 10 μM in the assay plate. Readout was obtained by measuring the fluorescence in a microtiter plate reader (excitation: 380 nm; detection: 440 nm).
For this purpose, the test item stock solutions were diluted to yield concentrations of 0.3, 1, 3, 10 and 30 μM, respectively, in the assay, which was performed as described above. The compound of structure (I-1) was selected for this experiment.
Quantification using the GraphPad Prism 5.0 software (GraphPad Software, Inc., LaJolla, Calif., USA) led to the following EC300 values (i.e. the concentration that gave 3-times the basal response of the enzyme=activation by a factor of three):
The selectivity of the agonistic effect of the compound of formula (I-1) on different sirtuin isoforms was investigated. For this purpose, in vitro testing was performed as described in Example 1 using the respective SIRT1 Fluorimetric Drug Discovery Kit, SIRT2 Fluorimetric Drug Discovery Kit, and SIRT3 Fluorimetric Drug Discovery Kit (each from BioMol, Hamburg, Germany). […] The dose-response effect is slightly lesser on Sirt3.

For series [1], the system named is normal human dermal fibroblasts (NHDF). Nature of the series: Resazurin based cytotoxicity assay in NHDF. In kind it is cell-based. The note with it: 24 h and 48 h; 0.03 μM to 200 μM. Here is the method:
The effect of compound (I-1) on mitochondria biosynthesis was investigated in normal human dermal fibroblasts (NHDF). NHDF were obtained from PromoCell (Lot No. 006151; donor; from eyelid skin) and cultivated in Fibroblast Growth Medium (PromoCell; Cat. No. C-023020) supplemented with Supplement Mix (PromoCell; Cat. No. C-039215) at 37° C./5% CO2. NHDF were seeded in flat-bottom 96-well plates (5000 cells/well) and incubated in said medium for 24 h or 48 h, respectively, with the compounds present in concentrations ranging from 0.03 μM to 200 μM. Mitochondria content was analyzed using the Mito-ID® Green Detection Kit for fluorescence microscopy (Enzo Life Sciences; Cat. No. ENZ-51055-K500). Fluorometric analysis was done using a Spectramax plate reader (Molecular Devices) and following the manufacturer's protocol. Cytotoxicity was determined in parallel by fluorometric readout using the Resazurin Based In Vitro Toxicology Assay Kit (Sigma Aldrich, Cat. No. TOX-8), and following the manufacturer's protocol.

For series [2], the system named is normal human epidermal keratinocytes (NHEK). Briefly: MTT reduction cytotoxicity assay in NHEK. Conditions: for viability: NHEK. Type of series: cell-based. Here is the method:
Culture conditions: 37° C., 5% CO2. Culture medium: Keratinocyte-SFM (serum-free medium) containing human recombinant epidermal growth factor (EGF 1-53) 0.25 ng/mL and bovine pituitary extract 25 μg/mL (Gibco; Cat. No. 17005-075), supplemented with gentamycin 25 μg/mL. Assay medium: Keratinocyte-SFM (Gibco; Cat. No. 10744-019), supplemented with gentamycin 25 μg/mL.
NHEK were seeded in 24-well plates (30.000 cells/well) and cultured in culture medium for 24 h and then in assay medium for another 24 h. Medium was then removed and replaced by assay medium containing the respective test compound or reference in defined concentrations.
Cytotoxicity was determined using the 3-(4,5-dimethylthiazol-2-yl)-2,5-diphenyltetrazoliumbromid (MTT) reduction assay (sse T. Mosmann (1983) J. Immunol. Methods. 65, pp. 55-63).
Background: Tetrazolium dyes change colour on reduction, which living cells bring about.

A further series deals with T2, Sirt2 (Homo sapiens, UniProt Q8IXJ6).
T2 construct: purchased BioMol, Hamburg, Germany
T2 sequence (Q8IXJ6 1-389): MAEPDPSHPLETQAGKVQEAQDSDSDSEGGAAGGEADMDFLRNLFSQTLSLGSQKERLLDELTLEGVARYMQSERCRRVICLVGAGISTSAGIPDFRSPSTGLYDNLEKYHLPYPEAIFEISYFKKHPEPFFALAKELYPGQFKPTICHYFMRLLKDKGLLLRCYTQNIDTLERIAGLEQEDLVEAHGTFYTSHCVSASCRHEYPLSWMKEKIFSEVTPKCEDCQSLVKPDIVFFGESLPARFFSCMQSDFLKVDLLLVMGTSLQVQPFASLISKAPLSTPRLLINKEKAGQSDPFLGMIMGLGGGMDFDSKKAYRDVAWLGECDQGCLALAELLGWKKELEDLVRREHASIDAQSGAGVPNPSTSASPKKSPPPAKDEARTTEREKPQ
Nature of the series: SIRT2 Fluorimetric Drug Discovery Kit, Sirt2 activation. Type of series: biochemical. Conditions: Example 2, Table 6.

The test system of series [3] is 5′-AMP-activated protein kinase (AMPK). Briefly: Western blot analysis of AMPK phosphorylation in NHEK. Type of series: cell-based, human. The note with it: for AMPK phosphorylation [% Control] / Ratio P-AMPK/GAPDH / P-AMPK: 1000 μM; for P-AMPK: 48 h. A general note: Immunoblotting shows a protein as a band on a membrane.
The target of another series is T3, Sirt3 (Homo sapiens, UniProt Q9NTG7).
T3 construct: purchased BioMol, Hamburg, Germany
T3 sequence (Q9NTG7 1-399): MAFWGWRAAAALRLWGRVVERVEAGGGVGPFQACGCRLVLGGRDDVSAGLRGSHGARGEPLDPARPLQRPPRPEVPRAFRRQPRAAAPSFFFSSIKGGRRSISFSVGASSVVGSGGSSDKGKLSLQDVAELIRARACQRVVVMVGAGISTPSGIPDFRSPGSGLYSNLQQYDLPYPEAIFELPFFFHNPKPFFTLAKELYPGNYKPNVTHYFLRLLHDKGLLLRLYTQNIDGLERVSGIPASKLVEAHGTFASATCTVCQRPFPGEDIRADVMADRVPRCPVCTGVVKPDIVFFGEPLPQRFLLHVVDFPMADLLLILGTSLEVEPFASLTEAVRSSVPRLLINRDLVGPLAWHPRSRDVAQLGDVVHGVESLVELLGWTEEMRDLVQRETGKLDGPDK
Nature of the series: SIRT3 Fluorimetric Drug Discovery Kit, Sirt3 activation. In kind it is biochemical. The note with it: Example 2, Table 6.

Setting [4] is: Example 1, concentration that gave 3-times the basal response of the enzyme.

Molecules are shown by their SMILES. Marks after values point to notes of the source that are not given here.

On to `O=C(O)c1c(O)cccc1/C=C/c1ccc(OC2OC(CO)C(O)C(O)C2O)cc1` (centres unmarked) [(I-5)], for which the “Fold increase in sirtl activity versus control” value (“Fold increase” below) at human sirtuin-1 (Sirt1) is on record as 2.7.
The same measure, in the same setting: the result for `O=C(O)c1c(O)cccc1/C=C/c1ccc(O)cc1` [(I-2)] reads 4.8.
Turning to `CCOC(=O)c1c(O)cccc1/C=C/c1ccc(OCC)cc1` [(I-1)], the “cytotoxicity / cell viability in NHDF” value in series [1] is recorded as “no cytotoxicity or loss of cell viability”. Further, the “cytotoxicity against NHEK” value in series [2] is given as “no cytotoxicity”. For the same molecule, the “Fold increase” value at human sirtuin-1 (Sirt1) was 23.9. Besides, the EC300 at human sirtuin-1 (Sirt1) (setting [4]) was 2.0 µM; at human sirtuin-1 (Sirt1) (Example 2, Table 6, Sirt1), 12.9 µM; on Sirt2 it was 4.9 µM; on Sirt3 it was >30* μM. The “AMPK phosphorylation” value in series [3] (NHEK, 30 μM) was “significantly enhanced”.
Regarding `COc1cc(/C=C/c2cccc(O)c2C(=O)O)cc(OC)c1O` [(I-4)], the “Fold increase” value at human sirtuin-1 (Sirt1) came to 2.0.
Turning to `NC(=O)c1ncn([C@@H]2O[C@H](CO)[C@@H](O)[C@H]2O)c1N` [AICAR, 5-Amino-1-βD-ribofuranosyl-imidazole-4-carboxamide], in series [3] (Experiment 1, Membrane 1), the “AMPK phosphorylation [% Control]” value was 482 % Control, the “Ratio P-AMPK/GAPDH” value is reported as 2.05 and the P-AMPK was determined as 1060 AU/mm^2. Moreover, in series [3] (Experiment 2), the “AMPK phosphorylation [% Control]” value turned out to be 506 % Control, the “Ratio P-AMPK/GAPDH” value came out at 0.572 and the P-AMPK is recorded as 1377449 AU/mm^2.
Usually viability stands for a per cent measure of how many cells are alive, often set against a control. A high value points to better survival. For the molecule `Oc1ccc(/C=C/c2cc(O)cc(O)c2)cc1` [trans-resveratrol], the viability in series [2] (100 μM) is 2%; in series [2] (300 μM) it was 43%. For the same molecule, the EC300 is above 30 µM on human sirtuin-1 (Sirt1) (setting [4]); above 30 µM on human sirtuin-1 (Sirt1) (Example 2, Table 6, Sirt1); above 30 µM at Sirt2.
Turning to `COC(=O)c1c(/C=C/c2ccc(OC)cc2)cccc1OC` [(I-3)], on human sirtuin-1 (Sirt1), the “Fold increase” value amounted to 1.1.

For the origin of these results see patent publication US20140336136A1, “Carboxylated Stilbenes For Activating AMPK And Sirtuins” (Rahn AG, priority 2013, published 2014).
